Results on 6 compounds are retold here after US20030207877A1, “Pyridoquinoxaline antivirals” (priority 2001, published 2003).

Where “and” joins values, the source holds several entries; their conditions need not be identical. Equal values may be shown once. Bounds are passed on as bounds.

Data set [1] has as its target T1, HCMV polymerase (Human cytomegalovirus, UniProt P08546).
T1 construct: made in house; host or cells: SF-9 insect cells infected with recombinant baculovirus
In words: HCMV polymerase assay (scintillation proximity assay), original and modified version. In kind it is biochemical. The conditions noted are these: SPA; several values per example = repeat determinations, assay version not given; read-out: CMV Polymerase IC50. The protocol:
The HCMV polymerase assay is performed using a scintillation proximity assay (SPA) as described in several references, such as N.D. Cook, et al., Pharmaceutical Manufacturing International, pages 49-53 (1992); K. Takeuchi, Laboratory Practice, September issue (1992); U.S. Pat. No. 4,568,649 (1986); which are incorporated by reference herein. Reactions are performed in 96-well plates. The assay is conducted in 100 μl volume with 5.4 mM HEPES (pH 7.5), 11.7 MM KCl, 4.5 mM MgCl2, 0.36 mg/ml BSA, and 90 nM ^3H-dTTP. Assays are run with and without CHAPS, (3-[(3-Cholamidopropyl)-dimethylammoniol-1-propane-sulfonate) at a final concentration of 2 mM. HCMV polymerase is diluted in enzyme dilution buffer containing 50% glycerol, 250 mM NaCl, 10 mM HEPES (pH 7.5), 100 μg/ml BSA, and 0.01% sodium azide. The HCMV polymerase, which is expressed in recombinant baculovirus-infected SF-9 cells and purified according to literature procedures, is added at 10% (or 10 μl) of the final reaction volume, i.e., 100 μl. Compounds are diluted in 50% DMSO and 10 μl are added to each well. Control wells contain an equivalent concentration of DMSO. Unless noted otherwise, reactions are initiated via the addition of 6 nM biotinylated poly(dA)-oligo(dT) template/primer to reaction mixtures containing the enzyme, substrate, and compounds of interest. Plates are incubated in a 25° C. or 37° C. H2O bath and terminated via the addition of 40 μl/reaction of 0.5 M EDTA (pH 8) per well. Reactions are terminated within the time-frame during which substrate incorporation is linear and varied depending upon the enzyme and conditions used, i.e., 30 min. for HCMV polymerase. Ten (10) μl of streptavidin-SPA beads (20 mg/ml in PBS/10% glycerol) are added following termination of the reaction. Plates are incubated 10 min. at 37° C., then equilibrated to room temperature, and counted on a Packard Topcount. Linear regressions are performed and IC50's are calculated using computer software.
A modified version of the above HCMV polymerase assay is performed as described above, but with the following changes: Compounds are diluted in 100% DMSO until final dilution into assay buffer. In the previous assay, compounds are diluted in 50% DMSO. 4.5 mM dithiotherotol (DTT) is added to the polymerase buffer.

Data set [2] addresses T2, Alpha Polymerase (Homo sapiens, UniProt P09884).
T2 sequence (P09884 1-1462): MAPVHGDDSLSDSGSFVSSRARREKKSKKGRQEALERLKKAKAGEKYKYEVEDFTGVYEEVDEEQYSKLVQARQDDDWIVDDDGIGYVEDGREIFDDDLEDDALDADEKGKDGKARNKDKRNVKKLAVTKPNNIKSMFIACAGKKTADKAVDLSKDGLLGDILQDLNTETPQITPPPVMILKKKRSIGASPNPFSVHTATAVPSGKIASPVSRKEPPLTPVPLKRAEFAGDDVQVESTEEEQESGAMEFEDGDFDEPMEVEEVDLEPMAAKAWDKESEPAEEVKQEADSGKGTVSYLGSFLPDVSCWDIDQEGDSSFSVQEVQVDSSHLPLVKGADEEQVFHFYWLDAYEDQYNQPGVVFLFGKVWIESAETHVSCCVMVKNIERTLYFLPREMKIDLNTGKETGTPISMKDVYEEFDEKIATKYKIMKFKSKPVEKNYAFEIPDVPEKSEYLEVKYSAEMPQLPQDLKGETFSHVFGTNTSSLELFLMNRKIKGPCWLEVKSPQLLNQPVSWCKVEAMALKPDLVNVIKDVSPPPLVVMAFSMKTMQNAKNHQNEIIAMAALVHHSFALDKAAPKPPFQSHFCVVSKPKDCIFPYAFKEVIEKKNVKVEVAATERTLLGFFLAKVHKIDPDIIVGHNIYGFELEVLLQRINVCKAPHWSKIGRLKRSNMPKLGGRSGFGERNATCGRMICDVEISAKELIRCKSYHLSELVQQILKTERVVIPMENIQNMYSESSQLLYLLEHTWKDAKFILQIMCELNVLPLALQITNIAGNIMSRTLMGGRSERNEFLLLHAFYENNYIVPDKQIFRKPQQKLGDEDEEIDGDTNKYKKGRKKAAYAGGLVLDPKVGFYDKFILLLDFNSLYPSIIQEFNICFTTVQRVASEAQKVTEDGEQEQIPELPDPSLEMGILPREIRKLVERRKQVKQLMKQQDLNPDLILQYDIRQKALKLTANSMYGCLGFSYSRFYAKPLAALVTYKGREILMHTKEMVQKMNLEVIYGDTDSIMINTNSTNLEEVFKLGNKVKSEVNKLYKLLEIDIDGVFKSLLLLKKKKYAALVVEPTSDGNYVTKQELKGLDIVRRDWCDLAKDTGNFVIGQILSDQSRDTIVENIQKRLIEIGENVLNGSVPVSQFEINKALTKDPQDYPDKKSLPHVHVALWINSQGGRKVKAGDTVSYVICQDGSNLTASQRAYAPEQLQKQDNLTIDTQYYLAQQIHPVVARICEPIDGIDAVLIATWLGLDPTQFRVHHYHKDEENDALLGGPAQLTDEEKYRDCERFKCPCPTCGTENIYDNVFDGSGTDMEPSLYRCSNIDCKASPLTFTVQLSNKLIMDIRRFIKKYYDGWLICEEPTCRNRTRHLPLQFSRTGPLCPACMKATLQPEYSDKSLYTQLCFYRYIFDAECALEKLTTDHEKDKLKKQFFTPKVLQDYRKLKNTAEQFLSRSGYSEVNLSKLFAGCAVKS
In words: Alpha polymerase inhibition (selectivity). Type of data set: biochemical.

T1 sequence (P08546 whole entry): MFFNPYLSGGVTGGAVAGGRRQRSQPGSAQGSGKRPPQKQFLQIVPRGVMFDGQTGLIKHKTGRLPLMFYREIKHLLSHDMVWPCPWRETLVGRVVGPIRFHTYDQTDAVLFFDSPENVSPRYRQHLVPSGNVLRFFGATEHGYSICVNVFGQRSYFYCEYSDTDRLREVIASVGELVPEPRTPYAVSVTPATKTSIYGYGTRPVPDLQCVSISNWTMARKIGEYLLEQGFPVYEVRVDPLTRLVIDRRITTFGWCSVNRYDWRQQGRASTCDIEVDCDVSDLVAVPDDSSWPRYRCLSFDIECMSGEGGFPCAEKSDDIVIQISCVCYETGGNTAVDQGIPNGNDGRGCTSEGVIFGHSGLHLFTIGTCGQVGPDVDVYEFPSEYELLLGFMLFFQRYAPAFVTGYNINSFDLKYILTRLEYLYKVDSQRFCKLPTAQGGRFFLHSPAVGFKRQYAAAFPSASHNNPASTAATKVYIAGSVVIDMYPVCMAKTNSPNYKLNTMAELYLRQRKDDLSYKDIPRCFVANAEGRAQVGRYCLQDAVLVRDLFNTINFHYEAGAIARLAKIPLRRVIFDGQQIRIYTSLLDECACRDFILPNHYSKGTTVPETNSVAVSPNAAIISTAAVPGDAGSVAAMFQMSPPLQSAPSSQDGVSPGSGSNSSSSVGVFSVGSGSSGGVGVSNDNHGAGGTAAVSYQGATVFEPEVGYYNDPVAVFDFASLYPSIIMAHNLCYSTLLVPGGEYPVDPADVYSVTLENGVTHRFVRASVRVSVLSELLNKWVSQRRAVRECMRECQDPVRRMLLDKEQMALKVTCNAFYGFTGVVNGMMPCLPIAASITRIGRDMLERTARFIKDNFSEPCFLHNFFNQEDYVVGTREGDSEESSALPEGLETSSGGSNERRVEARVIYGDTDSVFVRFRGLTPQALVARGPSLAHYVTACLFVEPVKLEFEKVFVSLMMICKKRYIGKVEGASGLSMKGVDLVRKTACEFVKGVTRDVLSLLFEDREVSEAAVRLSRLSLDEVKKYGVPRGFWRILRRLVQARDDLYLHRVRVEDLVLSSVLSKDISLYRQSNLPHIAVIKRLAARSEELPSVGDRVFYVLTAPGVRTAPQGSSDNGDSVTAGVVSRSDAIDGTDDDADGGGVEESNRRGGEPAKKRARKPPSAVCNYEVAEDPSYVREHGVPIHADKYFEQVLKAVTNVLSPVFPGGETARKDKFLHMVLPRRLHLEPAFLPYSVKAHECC

Turning to `CN(Cc1cc2c3c(c1)c(=O)c(C(=O)NCc1ccc(Cl)cc1)cn3CC(=O)N2C)CC(O)c1csc2ccccc12` (racemic) [Example 15, rac 9-{([2-(1-benzothien-3-yl)-2-hydroxyethyl](methyl)amino)methyl}-N-(4-chlorobenzyl)-1-methyl-2,7-dioxo-2,3-dihydro-1H,7H-pyrido[1,2,3-de]quinoxaline-6-carboxamide], the melting point fell in the range of 147 to 149 °C. Moreover, the IC50 in data set [1] was 110 nM and 86 nM. In data set [2], the IC50 was over 20000 nM.

As for `CN(Cc1cc2c3c(c1)c(=O)c(C(=O)NCc1ccc(Cl)cc1)cn3CC(=O)N2C)CC(O)c1ccc2ccccc2n1` (racemic) [Example 16, rac N-(4-chlorobenzyl)-9-{([2-hydroxy-2-quinolin-2-ylethyl](methyl)amino)methyl 1-1-methyl-2,7-dioxo-2,3-dihydro-1H,7H-pyrido[1,2,3-de]quinoxaline-6-carboxamide], the melting point is 173 to 177 °C. The IC50 in data set [1] is 48 nM and 36 nM. Further, in data set [2], the IC50 is over 20000 nM.

Take `CN(Cc1cc2c3c(c1)c(=O)c(C(=O)NCc1ccc(F)cc1)cn3CC(=O)N2C)CC(O)c1cc2ccccc2o1` (racemic) [Example 33, rac 9-{[[2-(1-benzofuran-2-yl)-2-hydroxyethyl](methyl)amino]methyl}-N-(4-fluorobenzyl)-1-methyl-2,7-dioxo-2,3-dihydro-1H,7H-pyrido[1,2,3-de]quinoxaline-6-carboxamide]: the melting point is 161 to 163 °C. Also, the IC50 in data set [1] stood at 32 nM. Besides, inhibition in data set [2] was half-maximal at 4390 nM (IC50).

`CN(Cc1cc2c3c(c1)c(=O)c(C(=O)NCc1ccc(Cl)cc1)cn3CC(=O)N2C)C[C@@H](O)c1ccco1` [Example 11, N-(4-chlorobenzyl)-9-{[[(2R)-2-(2-furyl)-2-hydroxyethyl](methyl)amino]methyl}-1-methyl-2,7-dioxo-2,3-dihydro-1H,7H-pyrido[1,2,3-de]quinoxaline-6-carboxamide] came in with a melting point of 119 to 120 °C. In data set [1], the IC50 is 110 nM and 46 nM. The same compound gave a concentration for half-maximal inhibition (IC50) in data set [2] of over 20000 nM.

`CN(Cc1cc2c3c(c1)c(=O)c(C(=O)NCc1ccc(Cl)cc1)cn3CC(=O)N2C)C[C@@H](O)c1cccnc1` [Example 13, N-(4-chlorobenzyl)-9-{[[(2S)-2-hydroxy-2-pyridin-3-ylethyl](methyl)amino]methyl}-1-methyl-2,7-dioxo-2,3-dihydro-1H,7H-pyrido[1,2,3-de]quinoxaline-6-carboxamide] came in with a melting point of 131 to 135 °C. For the same compound, the IC50 in data set [1] was 150 nM and 76 nM. The compound further yielded a concentration for half-maximal inhibition (IC50) in data set [2] of over 20000 nM.

For the compound `CN(Cc1cc2c3c(c1)c(=O)c(C(=O)NCc1ccc(Cl)cc1)cn3CC(=O)N2C)C[C@@H](O)c1cnccn1` [Example 21, N-(4-chlorobenzyl)-9-{[[(2R)-2-hydroxy-2-pyrazin-2-ylethyl](methyl)amino]methyl}-1-methyl-2,7-dioxo-2,3-dihydro-1H,7H-pyrido[1,2,3-de]quinoxaline-6-carboxamide], the melting point lay in the range of 97 to 98 °C. For the same compound, in data set [1], the IC50 is 160 nM and 120 nM. In data set [2], this compound showed an IC50 of over 10000 nM.
